Experiment in all cases: combination Emax (second highest fraction inhibited in the dose matrix, 72 h); higher = more inhibition; extreme values may be limits of the assay
In assay [1] the test system is CAL-51 (Breast Carcinoma). The procedure, abridged:
(§1)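 Cell lines in DMEM/F12 or RPMI with 10% FBS were plated in 1536-well plates, held 24 hours at 37°C, 5% CO2, then given two-drug dose matrices for 72 hours (DMSO typically 0.2%). Viability was read by CellTiter-Glo 2.0 luminescence and scaled as inhibition from 0 (vehicle wells) to 1 (blank wells). Combination Emax is the second-highest inhibition in the matrix; Bliss excess is observed combination effect minus expected EA + EB − EA·EB, EA and EB being single-agent effects.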

The subject of assay [2] is COLO-829 (Melanoma). The procedure, abridged: as §1
The subject of assay [3] is EN (Endometrial Carcinoma). The procedure, abridged: as §1
The subject of assay [4] is HCC-15 (Squamous Cell Lung Carcinoma). The method, boiled down: as §1
For assay [5], the system named is HMV-II (Melanoma). The procedure, abridged: as §1
The subject of assay [6] is HO-1-u-1 (Oral Cavity Carcinoma). The procedure, abridged: as §1
The subject of assay [7] is Hs-633T (Other Solid Carcinomas). The procedure, abridged:
as §1

For assay [8], the system named is KYSE-410 (Esophageal Squamous Cell Carcinoma). The method, boiled down:
as §1

In assay [9] the test system is LoVo (Colorectal Carcinoma). The procedure, abridged: as §1
The subject of assay [10] is MDA-MB-468 (Breast Carcinoma). The procedure, abridged:
as §1

Assay [11] concerns NCI-H2461 (Mesothelioma). The procedure, abridged:
as §1

Assay [12] has as its system NCI-H2795 (Mesothelioma). The method, boiled down:
as §1

Assay [13] has as its system NCI-H28 (Mesothelioma). The procedure, abridged:
as §1

Assay [14] relates to PCI-30 (Head and Neck Carcinoma). The method, boiled down:
as §1

The subject of assay [15] is RT-112 (Bladder Carcinoma). The method, boiled down:
as §1

For assay [16], the system named is SH-4 (Melanoma). The method, boiled down: as §1
Assay [17] has as its system SU-DHL-6 (B-Cell Non-Hodgkin's Lymphoma). The method, boiled down:
as §1

For assay [18], the system named is SUP-T1 (T-Lymphoblastic Leukemia). The method, boiled down: as §1
Assay [19] deals with TE-4 (Esophageal Squamous Cell Carcinoma). The procedure, abridged: as §1
The subject of assay [20] is UMC-11 (Other Solid Carcinomas). The procedure, abridged:
as §1

The structures appear in SMILES notation.

Take `CC1(C)CCC(CN2CCN(c3ccc(C(=O)NS(=O)(=O)c4ccc(NCC5CCOCC5)c([N+](=O)[O-])c4)c(Oc4cnc5[nH]ccc5c4)c3)CC2)=C(c2ccc(Cl)cc2)C1` [Venetoclax] + C[C@@H]1COCCN1C2=NC(=NC(=C2)C3(CC3)[S@](=N)(=O)C)C4=C5C=CNC5=NC=C4 [AZD6738] (first compound max 1 µM, 7x7, partner max 10 µM): the “combination Emax” value in assay [1] amounted to 0.909; in [2], 0.349; in assay [3], 0.64; in assay [4], 0.191; in assay [5], 0.464; in assay [6], 0.853. Besides, the “combination Emax” value in assay [7] came to 0.763; in assay [8], 0.372; in assay [9] it was 0.767; in assay [10], 0.624; in assay [11], 0.725; in assay [12] it was 0.622. The “combination Emax” value in assay [13] amounted to 0.472; in assay [14], 0.69; in assay [15], 0.842; in assay [16], 0.304; in assay [17], 0.92; in assay [18], 0.821. Besides, the results for the “combination Emax” value in [19] and in [20] were 0.617 and 0.619, respectively.
In the case of `Cc1c2c(nn1C)CSCc1cc(n(C)n1)CSc1cc(c3ccccc3c1)OCCCc1c(C(=O)O)n(C)c3c-2c(Cl)ccc13` [AZD5991] + CN(C)CCCOc1ccc(-c2ccc3ncc4c(c3c2)n(C2CCOCC2)c(=O)n4C)cn1 [AZD0156] (first compound max 1 µM, 7x7, partner max 1 µM), the “combination Emax” value in [1] was 0.476; in assay [2], 0.118; in assay [3] it was 0.572; in [4], 0.303; in assay [5], 0.256; in [6], 0.245. Further, the “combination Emax” value in assay [7] came out at 0.276; in assay [8], 0.236; in assay [9], 0.496; in [10], 0.452; in assay [11], 0.307; in assay [12], 0.812. For the same compound, the “combination Emax” value in assay [13] worked out at 0.194; in assay [14], 0.232; in [15], 0.876; in assay [16], 0.316; in [17], 1; in [18], 0.371. Also, the “combination Emax” value was found to be 0.481 in assay [19] and 0.486 in [20].
Take `CC1(C)CCC(CN2CCN(c3ccc(C(=O)NS(=O)(=O)c4ccc(NCC5CCOCC5)c([N+](=O)[O-])c4)c(Oc4cnc5[nH]ccc5c4)c3)CC2)=C(c2ccc(Cl)cc2)C1` [Venetoclax] + COc1cc(Nc2ncc3c(n2)-c2ccc(Cl)cc2C(c2c(F)cccc2OC)=NC3)ccc1C(=O)O [Alisertib] (first compound max 1 µM, 7x7, partner max 10 µM): the “combination Emax” value came to 0.574 in assay [1]; 0.252 in assay [2]; 0.463 in assay [3]; 0.86 in assay [4]; 0.363 in assay [5]; 0.611 in assay [6]. Further, the “combination Emax” value worked out at 0.44 in assay [7]; 0.361 in assay [8]; 0.48 in assay [9]; 0.748 in assay [10]; 0.459 in assay [11]; 0.936 in [12]. For the same compound, the “combination Emax” value stood at 0.348 in assay [13]; 0.218 in [14]; 0.673 in assay [15]; 0.146 in assay [16]; 0.96 in assay [17]; 0.611 in assay [18]. Further, the results for the “combination Emax” value in [19] and in [20] were 0.194 and 0.798, respectively.
As to `CC1(C)CCC(CN2CCN(c3ccc(C(=O)NS(=O)(=O)c4ccc(NCC5CCOCC5)c([N+](=O)[O-])c4)c(Oc4cnc5[nH]ccc5c4)c3)CC2)=C(c2ccc(Cl)cc2)C1` [Venetoclax] + Cc1cc2ncnn2cc1Nc1ncc2c(n1)n(C1CCOCC1)c(=O)n2C [AZD7648] (first compound max 1 µM, 7x7, partner max 10 µM), the “combination Emax” value in assay [1] came out at 0.289; in assay [2], 0.143; in assay [3] it was 0.49; in assay [4] it was 0.253; in assay [5], 0.263; in [6], 0.305. In addition, the “combination Emax” value worked out at 0.188 in [7]; 0.23 in [8]; 0.443 in [9]; 0.397 in assay [10]; 0.528 in assay [11]; 0.471 in assay [12]. The “combination Emax” value in assay [13] is 0.216; in [14] it was 0.224; in assay [15], 0.257; in assay [16], 0.279; in [17], 0.853; in assay [18] it was 0.602. The entries for the “combination Emax” value in assay [19] and in assay [20] were 0.228 and 0.414, respectively.
